The values that follow are results of earlier work, collected in US20140079639A1, “METHODS AND COMPOSITIONS FOR IDENTIFYING, PRODUCING AND USING PLANT-DERIVED PRODUCTS FOR MODULATING CELL FUNCTION AND AGING” (LIFESPAN EXTENSION, LLC, priority 2009, published 2014).

The test system of one series is fibroblast cells. Conditions: cells treated in culture.
The conditions of series [1]: when absorbed into the body.
The conditions of series [2]: oxidation of lipids due to e.g. UV radiation or free radical damage.

In the case of `NCCC(=O)N[C@@H](Cc1cnc[nH]1)C(=O)O` [Carnosine], in the series on fibroblast cells, the “extension of lifespan of fibroblast cells past the Hayflick limit of non-treated cells” value is “up to 10 divisions”.
Regarding `COC1=C(OC)C(=O)C(C/C=C(\C)CC/C=C(\C)CC/C=C(\C)CC/C=C(\C)CC/C=C(\C)CC/C=C(\C)CC/C=C(\C)CC/C=C(\C)CC/C=C(\C)CCC=C(C)C)=C(C)C1=O` [ubiquinone, Ubiquinone], the “conversion to the active antioxidant form ubiquinol” value in series [1] is reported as 90%.
In the case of `O=C(O)/C=C/c1ccc(O)c(O)c1` [Caffeic Acid, (E)-3-(3,4-dihydroxyphenyl)-2-propenoic acid], the solubility result is “soluble in water and alcohol”.
Turning to `COC1=C(OC)C(=O)C(CCCCCCCCCCO)=C(C)C1=O` [idebenone, 6-(10-hydroxydecyl)-2,3-dimethoxy-5-methyl-1,4-benzoquin-one], the “reduction of lipid hydroperoxides among the tested antioxidants” value in series [2] is “highest reduction”.
